Measured values from ChEMBL document CHEMBL2029244, “Synthesis and antimycobacterial activity of prodrugs of sulfur dioxide (SO2)” (Bioorg Med Chem Lett, 2012).
Converted amounts (≈) assume the structure as drawn.

test system: Mycobacterium tuberculosis; assay: Antimycobacterial activity against Mycobacterium tuberculosis H37Rv after 28 days; format: functional; details: 672 h; call rule not given here

Q: With `CN(c1ccccc1)S(=O)(=O)c1ccc([N+](=O)[O-])cc1[N+](=O)[O-]` as the compound, how does the MIC read?
A: The MIC was 0.78 µg/mL (≈ 2.31 µM).

Q: For `O=[N+]([O-])c1ccc(S(=O)(=O)Nc2ccc(F)cc2)c([N+](=O)[O-])c1`, which MIC is on record?
A: The MIC was 6.25 µg/mL (≈ 18.3 µM).

Q: Which MIC does the source give for `NNC(=O)c1ccncc1` [ISONIAZID] here?
A: The MIC was 0.05 µg/mL (≈ 0.365 µM).

Q: Which MIC does the source give for `O=[N+]([O-])c1ccc(S(=O)(=O)NCc2ccccc2C(F)(F)F)c([N+](=O)[O-])c1` here?
A: The MIC was 1.56 µg/mL (≈ 3.85 µM).

Q: Which MIC does the source give for `O=[N+]([O-])c1ccc(S(=O)(=O)NCc2ccc(Cl)cc2)c([N+](=O)[O-])c1` here?
A: The MIC was 0.4 µg/mL (≈ 1.08 µM).

Q: For `COc1ccc(CNS(=O)(=O)c2ccc([N+](=O)[O-])cc2[N+](=O)[O-])cc1`, which MIC is on record?
A: The MIC was 0.25 µg/mL (≈ 0.681 µM).

Q: Which MIC does the source give for `C[C@H](NS(=O)(=O)c1ccc([N+](=O)[O-])cc1[N+](=O)[O-])c1ccccc1` here?
A: The MIC was 1.56 µg/mL (≈ 4.44 µM).

Q: With `O=[N+]([O-])c1ccc(S(=O)(=O)N(CCc2ccccc2)Cc2ccccc2)c([N+](=O)[O-])c1` as the compound, how does the MIC read?
A: Its MIC is 3.13 µg/mL (≈ 7.09 µM).

Q: For `O=[N+]([O-])c1ccc(S(=O)(=O)NCCc2ccccc2)c([N+](=O)[O-])c1`, which MIC is on record?
A: Its MIC is 0.4 µg/mL (≈ 1.14 µM).

Q: Which MIC does the source give for `CC[C@@H](CO)NCCN[C@@H](CC)CO` [ETHAMBUTOL] here?
A: The MIC was 1.56 µg/mL (≈ 7.64 µM).

Q: With `O=[N+]([O-])c1ccc(S(=O)(=O)NCc2ccc(C(F)(F)F)cc2)c([N+](=O)[O-])c1` as the compound, how does the MIC read?
A: The MIC was 0.4 µg/mL (≈ 0.987 µM).

Q: With `COc1ccccc1NS(=O)(=O)c1ccc([N+](=O)[O-])cc1[N+](=O)[O-]` as the compound, how does the MIC read?
A: Its MIC is 3.13 µg/mL (≈ 8.86 µM).

Q: For `O=[N+]([O-])c1ccc(S(=O)(=O)N(Cc2ccccc2)c2ccccc2)c([N+](=O)[O-])c1`, which MIC is on record?
A: The MIC was 1.56 µg/mL (≈ 3.77 µM).

Q: For `CN(CCc1ccccc1)S(=O)(=O)c1ccc([N+](=O)[O-])cc1[N+](=O)[O-]`, which MIC is on record?
A: Its MIC is 0.78 µg/mL (≈ 2.13 µM).

Q: For `C[C@@H](NS(=O)(=O)c1ccc([N+](=O)[O-])cc1[N+](=O)[O-])c1ccccc1`, which MIC is on record?
A: The MIC was 1.56 µg/mL (≈ 4.44 µM).

Q: For `NC(=O)c1cnccn1` [PYRAZINAMIDE], which MIC is on record?
A: Its MIC is 6.25 µg/mL (≈ 50.8 µM).

Q: Which MIC does the source give for `N#Cc1ccc(NS(=O)(=O)c2ccc([N+](=O)[O-])cc2[N+](=O)[O-])cc1` here?
A: Its MIC is greater than 50 µg/mL.

test system: not listed separately; assay: Drug degradation assessed as decrease in compound level at pH 7.4 after 30 mins in the presence of 2-mercaptoethanol; format: physicochemical; details: buffer, pH 7.4, 0.5 h

Q: With `COc1ccc(NS(=O)(=O)c2ccc([N+](=O)[O-])cc2[N+](=O)[O-])cc1` as the compound, how does the Drug degradation read?
A: Its Drug degradation is “Active”.

test system: not listed separately; assay: Drug degradation assessed as 2-hydroxyethylthio-2,4-dinitrobenzene production at pH 7.4 after 6 hrs in the presence of 2-mercaptoethanol; format: physicochemical; details: buffer, pH 7.4, 6 h

Q: With `COc1ccc(NS(=O)(=O)c2ccc([N+](=O)[O-])cc2[N+](=O)[O-])cc1` as the compound, how does the Drug degradation read?
A: Its Drug degradation is “Active”.
